Test [1] concerns the target T1, Casein kinase II (Homo sapiens) (UniProt P67870+P68400+P19784). Put plainly: Inhibition of human recombinant CK2 using RRRDDDSDDD-EDANS peptide substrate at 10 µM by capillary electrophoresis analysis.
Another test deals with Casein kinase II (Homo sapiens, UniProt P19784+P67870+P68400). Put plainly: Inhibition of human recombinant CK2 using RRRDDDSDDD-EDANS peptide substrate by capillary electrophoresis analysis. Format: protein-complex assay.
For another test, the species on record is Homo sapiens. The test can be described thus: Antitumor activity against human lymphoma assessed as growth inhibition at 27 uM. Format: functional.
A further test relates to DU-145. The test can be described thus: Antitumor activity against human DU145 cells assessed as growth inhibition. Format: functional.
Test [2] can be described thus: Antitumor activity against human NCI-ADR-RES cells assessed as growth inhibition. Format: functional.
Another test deals with OVCAR-5. Put plainly: Antitumor activity against human OVCAR5 cells assessed as growth inhibition. Format: functional.
For another test, the system named is HOP-92. Put plainly: Antitumor activity against human HOP92 cells assessed as growth inhibition. Format: functional.
For test [3], the target named is T1, Casein kinase II (Homo sapiens). Put plainly: Inhibition of human recombinant CK2 using RRRDDDSDDD-EDANS peptide substrate at […] by capillary electrophoresis analysis. Format: protein-complex assay.

Structures are written as SMILES.

Sequence of Casein kinase II (P67870 whole entry): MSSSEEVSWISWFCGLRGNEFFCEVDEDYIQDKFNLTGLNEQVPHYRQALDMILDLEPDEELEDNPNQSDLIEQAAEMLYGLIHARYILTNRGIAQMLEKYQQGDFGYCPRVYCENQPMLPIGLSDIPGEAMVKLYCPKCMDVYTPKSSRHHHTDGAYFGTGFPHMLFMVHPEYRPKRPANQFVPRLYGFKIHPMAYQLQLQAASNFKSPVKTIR
Sequence of Casein kinase II (P68400 whole entry): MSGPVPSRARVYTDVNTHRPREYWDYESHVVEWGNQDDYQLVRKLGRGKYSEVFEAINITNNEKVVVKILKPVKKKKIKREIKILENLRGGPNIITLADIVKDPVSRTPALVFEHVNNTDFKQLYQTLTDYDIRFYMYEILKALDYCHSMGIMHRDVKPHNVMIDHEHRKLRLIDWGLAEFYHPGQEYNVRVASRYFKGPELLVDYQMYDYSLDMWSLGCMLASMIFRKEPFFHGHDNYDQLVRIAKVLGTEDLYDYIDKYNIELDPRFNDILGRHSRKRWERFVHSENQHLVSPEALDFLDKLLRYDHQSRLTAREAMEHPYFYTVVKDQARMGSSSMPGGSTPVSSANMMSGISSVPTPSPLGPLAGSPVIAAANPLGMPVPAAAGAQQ
Sequence of Casein kinase II (P19784 whole entry): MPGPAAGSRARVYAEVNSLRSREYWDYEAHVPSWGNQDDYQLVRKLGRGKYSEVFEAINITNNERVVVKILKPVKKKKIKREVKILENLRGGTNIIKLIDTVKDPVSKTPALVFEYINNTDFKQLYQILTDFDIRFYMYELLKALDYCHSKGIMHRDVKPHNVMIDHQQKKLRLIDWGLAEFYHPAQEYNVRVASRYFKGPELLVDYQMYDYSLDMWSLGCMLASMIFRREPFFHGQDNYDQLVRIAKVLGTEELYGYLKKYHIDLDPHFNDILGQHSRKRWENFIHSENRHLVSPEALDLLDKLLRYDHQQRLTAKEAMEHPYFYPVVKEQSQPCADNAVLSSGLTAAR

The term inhibition denotes the change of the read-out against control, counted positive when it falls. The term IC50 denotes the midpoint of a concentration-inhibition curve. For `CCOC(=O)c1oc2c(Cl)c(Cl)c(OC(C)=O)c(C#N)c2c1N`, the inhibition in test [1] was determined as 69%. Moreover, at Casein kinase II, the IC50 came out at 2400 nM.

As to `CC(=O)Oc1c(Cl)c(Cl)c2oc(C(=O)C=C(C)C)c(N)c2c1C#N`, in test [1], the inhibition was found to be 93%. Further, the 50% inhibitory concentration (IC50) at Casein kinase II turned out to be 200 nM. Moreover, the growth inhibition (GI) in the test filed under Homo sapiens was above 99%.

As for `CC(C)=CC(=O)c1oc2c(Cl)c(Cl)c(O)c(C#N)c2c1N`, the inhibition in test [1] is above 96%.

The GI50 is the concentration that inhibits growth by half. For `CCOC(=O)C1=C(C)N(c2ccc(Cl)cc2)C(=N)C12C(=O)C(Cl)=C(Cl)C(O)=C2C#N` (centres undefined), in the test on DU-145, the GI50 is 339 nM.

Regarding `CC(C)=CC(=O)c1coc2ccc(O)cc12`, in test [1], the inhibition is 39%.

For the compound `CCOC(=O)C1=C(C)N(Cc2ccc(Cl)cc2Cl)C(=N)C12C(=O)C(Cl)=C(Cl)C(O)=C2C#N` (centres undefined), the GI50 is 191 nM in test [2] and 2690 nM with OVCAR-5.

Take `CCOC(=O)C1=C(c2ccccc2)N(c2ccc(OC)cc2)C(=N)C12C(=O)C(Cl)=C(Cl)C(O)=C2C#N` (centres undefined): the GI50 in the test on HOP-92 is 550 nM.

With `CCOC(=O)C1=C(C)N(Cc2ccc(Cl)cc2Cl)/C(=N\C(C)=O)C12C(=O)C(Cl)=C(Cl)C(OC(C)=O)=C2C#N` (centres undefined), the inhibition in test [3] was determined as 0%.

On to `CCOC(=O)C1=C(C)N(c2ccc(F)cc2F)C(=N)C12C(=O)C(Cl)=C(Cl)C(O)=C2C#N` (centres undefined), for which the GI50 in the test on HOP-92 was 1780 nM.

Regarding `CCOC(=O)c1oc2ccc(OC(C)=O)c(CNC(C)=O)c2c1NC(C)=O`, the inhibition in test [1] was found to be 0%.

These data come from ChEMBL document CHEMBL1764952, “A novel application of DDQ as electrophile in the Nenitzescu reaction” (Bioorg Med Chem, 2011).
